# Laboratory results published in paper PMC8058163 (Clinical pharmacology and therapeutics, 2020).
# Values joined by “and” are separate entries in the source; they are usually repeats but may differ in a detail not shown here. Identical values can stand only once. Like-named read-outs stand apart in the source and are kept apart here.
# Columns and labels:
# BSEP = BSEP (Homo sapiens, UniProt O95342); assay: Transporter inhibition assay, BSEP
# OATP2B1 = biological target: T1, OATP2B1 (Homo sapiens, UniProt O94956); assay: Transporter inhibition assay, OATP2B1; conditions: for inhibition at 100 μM: cell line (HEK293 or MDCKII) stably expressing OATP2B1
# T1 sequence (O94956 1-709): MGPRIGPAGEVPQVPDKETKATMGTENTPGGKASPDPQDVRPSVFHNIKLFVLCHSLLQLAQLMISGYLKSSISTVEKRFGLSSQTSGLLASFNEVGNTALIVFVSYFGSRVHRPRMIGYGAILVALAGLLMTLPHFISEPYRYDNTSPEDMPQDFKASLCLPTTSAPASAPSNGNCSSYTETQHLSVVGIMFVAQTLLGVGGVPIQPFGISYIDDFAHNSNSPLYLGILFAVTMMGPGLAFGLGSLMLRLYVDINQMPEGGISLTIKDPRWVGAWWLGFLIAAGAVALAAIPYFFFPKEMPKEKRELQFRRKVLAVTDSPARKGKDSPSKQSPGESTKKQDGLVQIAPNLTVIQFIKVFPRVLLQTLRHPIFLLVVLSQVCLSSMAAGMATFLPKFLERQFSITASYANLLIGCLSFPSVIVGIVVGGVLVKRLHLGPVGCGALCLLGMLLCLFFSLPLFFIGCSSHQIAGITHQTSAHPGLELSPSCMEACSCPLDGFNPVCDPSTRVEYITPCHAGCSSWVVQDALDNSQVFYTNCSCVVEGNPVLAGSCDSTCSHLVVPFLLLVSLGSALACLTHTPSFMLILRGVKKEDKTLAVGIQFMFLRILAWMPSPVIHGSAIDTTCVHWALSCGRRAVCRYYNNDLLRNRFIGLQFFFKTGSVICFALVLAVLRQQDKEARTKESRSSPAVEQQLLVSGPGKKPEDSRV
# MATE1 = biological target: T2, MATE1 (Homo sapiens, UniProt Q96FL8); assay: Transporter inhibition assay, MATE1
# T2 sequence (Q96FL8 1-570): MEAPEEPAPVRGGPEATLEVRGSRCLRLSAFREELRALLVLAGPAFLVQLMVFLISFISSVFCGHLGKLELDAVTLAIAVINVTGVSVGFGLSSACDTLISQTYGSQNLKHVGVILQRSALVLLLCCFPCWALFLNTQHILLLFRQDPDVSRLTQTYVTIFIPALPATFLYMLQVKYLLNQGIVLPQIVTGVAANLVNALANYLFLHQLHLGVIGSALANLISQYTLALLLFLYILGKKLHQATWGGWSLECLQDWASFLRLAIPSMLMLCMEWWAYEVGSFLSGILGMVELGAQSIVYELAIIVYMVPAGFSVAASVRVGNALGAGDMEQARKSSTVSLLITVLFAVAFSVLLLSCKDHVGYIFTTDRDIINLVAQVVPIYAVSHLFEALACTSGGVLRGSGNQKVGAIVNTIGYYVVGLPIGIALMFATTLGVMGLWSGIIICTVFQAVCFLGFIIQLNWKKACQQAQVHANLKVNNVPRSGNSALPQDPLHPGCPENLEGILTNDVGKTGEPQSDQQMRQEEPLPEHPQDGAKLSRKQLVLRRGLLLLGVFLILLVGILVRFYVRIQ
# OATP1B1 = biological target: T3, OATP1B1 (Homo sapiens, UniProt Q9Y6L6); assay: Transporter inhibition assay, OATP1B1; conditions: for inhibition at 100 μM: cell line (HEK293 or MDCKII) stably expressing OATP1B1
# T3 sequence (Q9Y6L6 1-691): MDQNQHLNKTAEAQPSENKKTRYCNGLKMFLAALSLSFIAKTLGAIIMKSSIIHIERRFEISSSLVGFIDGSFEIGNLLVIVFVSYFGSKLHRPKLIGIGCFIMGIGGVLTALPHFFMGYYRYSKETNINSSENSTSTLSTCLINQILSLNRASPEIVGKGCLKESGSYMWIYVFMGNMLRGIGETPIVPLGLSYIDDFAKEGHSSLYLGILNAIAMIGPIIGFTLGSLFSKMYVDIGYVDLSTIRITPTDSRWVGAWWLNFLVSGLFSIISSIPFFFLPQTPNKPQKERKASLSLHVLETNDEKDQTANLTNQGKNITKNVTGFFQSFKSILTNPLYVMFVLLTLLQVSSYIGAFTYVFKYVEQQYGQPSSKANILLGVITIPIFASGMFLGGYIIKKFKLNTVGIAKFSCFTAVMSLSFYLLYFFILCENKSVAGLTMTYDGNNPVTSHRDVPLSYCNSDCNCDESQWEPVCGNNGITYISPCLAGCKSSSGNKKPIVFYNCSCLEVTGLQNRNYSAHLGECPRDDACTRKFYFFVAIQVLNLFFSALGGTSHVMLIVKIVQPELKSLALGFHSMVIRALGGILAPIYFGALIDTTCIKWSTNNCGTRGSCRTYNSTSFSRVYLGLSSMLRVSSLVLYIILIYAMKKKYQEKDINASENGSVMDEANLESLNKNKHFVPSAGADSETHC
# NTCP = biological target: T4, NTCP (Homo sapiens, UniProt Q14973); assay: Transporter inhibition assay, NTCP; format: cell-based; conditions: alkaloids screened at 10 and 100 μM
# T4 sequence (Q14973 1-349): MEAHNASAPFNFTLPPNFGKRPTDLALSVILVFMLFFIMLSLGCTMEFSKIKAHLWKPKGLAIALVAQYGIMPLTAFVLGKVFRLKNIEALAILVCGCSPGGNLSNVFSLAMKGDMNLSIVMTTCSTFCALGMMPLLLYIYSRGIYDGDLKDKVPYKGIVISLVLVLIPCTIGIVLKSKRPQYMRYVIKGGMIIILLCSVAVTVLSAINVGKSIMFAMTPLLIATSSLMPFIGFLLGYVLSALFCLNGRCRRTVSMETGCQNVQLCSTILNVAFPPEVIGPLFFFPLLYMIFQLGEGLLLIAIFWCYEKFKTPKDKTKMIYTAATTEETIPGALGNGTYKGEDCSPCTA
# Chain of BSEP (O95342 whole entry): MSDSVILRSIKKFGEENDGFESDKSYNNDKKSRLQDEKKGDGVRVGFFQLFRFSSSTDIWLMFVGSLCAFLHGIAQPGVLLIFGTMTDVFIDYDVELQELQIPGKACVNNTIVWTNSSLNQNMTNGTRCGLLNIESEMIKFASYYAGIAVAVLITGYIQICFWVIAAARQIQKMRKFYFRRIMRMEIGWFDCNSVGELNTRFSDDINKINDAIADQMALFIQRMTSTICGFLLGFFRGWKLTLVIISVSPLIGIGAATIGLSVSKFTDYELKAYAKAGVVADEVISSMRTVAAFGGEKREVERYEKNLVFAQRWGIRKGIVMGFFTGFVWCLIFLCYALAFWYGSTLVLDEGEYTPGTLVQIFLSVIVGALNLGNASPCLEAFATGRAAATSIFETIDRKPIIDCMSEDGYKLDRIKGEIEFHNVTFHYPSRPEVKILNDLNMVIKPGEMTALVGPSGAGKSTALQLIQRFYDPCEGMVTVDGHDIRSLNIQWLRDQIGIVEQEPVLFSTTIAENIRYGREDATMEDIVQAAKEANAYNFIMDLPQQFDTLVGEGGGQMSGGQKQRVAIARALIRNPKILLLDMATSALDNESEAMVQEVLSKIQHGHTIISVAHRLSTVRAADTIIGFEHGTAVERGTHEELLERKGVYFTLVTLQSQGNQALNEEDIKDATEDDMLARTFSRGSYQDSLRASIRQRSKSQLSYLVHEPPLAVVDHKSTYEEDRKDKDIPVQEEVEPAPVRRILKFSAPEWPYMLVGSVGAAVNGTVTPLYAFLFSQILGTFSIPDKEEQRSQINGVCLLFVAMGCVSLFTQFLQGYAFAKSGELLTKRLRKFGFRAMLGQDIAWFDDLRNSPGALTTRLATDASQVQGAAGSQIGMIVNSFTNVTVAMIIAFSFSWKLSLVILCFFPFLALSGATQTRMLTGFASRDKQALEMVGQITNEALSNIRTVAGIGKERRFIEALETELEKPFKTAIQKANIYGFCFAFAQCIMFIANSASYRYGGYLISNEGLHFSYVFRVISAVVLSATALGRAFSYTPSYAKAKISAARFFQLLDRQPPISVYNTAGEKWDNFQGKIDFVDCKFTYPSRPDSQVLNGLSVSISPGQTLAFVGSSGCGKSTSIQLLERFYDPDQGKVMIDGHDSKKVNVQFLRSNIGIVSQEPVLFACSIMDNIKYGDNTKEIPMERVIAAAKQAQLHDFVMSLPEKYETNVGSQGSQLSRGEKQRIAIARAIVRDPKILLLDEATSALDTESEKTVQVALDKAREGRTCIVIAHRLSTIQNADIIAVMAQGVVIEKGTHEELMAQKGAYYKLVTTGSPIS
SMILES,"inhibition at the highest concentration tested (BSEP; BSEP, alkaloids screened at 10 and 100 μM)","inhibition at the highest concentration tested (OATP2B1; OATP2B1, alkaloids screened at 10 and 100 μM)","IC50 (MATE1; MATE1, isolated alkaloids, mean [95% CI], three technical replicates) [µM]","IC50 (OATP1B1; OATP1B1, isolated alkaloids, mean [95% CI], three technical replicates) [µM]",inhibition at the highest concentration tested (NTCP),inhibition at 100 μM (BSEP) [%],inhibition at 100 μM (OATP2B1) [%],"IC50 (MATE1; IC50, MATE1, isolated alkaloids, mean [95% CI], three technical replicates)",inhibition at 100 μM (OATP1B1) [%],IC50 (MATE1) [µM]
"COc1ccc2c(c1OC)C(=O)O[C@@H]2[C@H]1c2cc3c(cc2CCN1C)OCO3 [(−)-β-Hydrastine, (1R,9S)-(−)-β-Hydrastine]",-- (inhibition not observed),-- (inhibition not observed),110,120,-- (inhibition not observed),–,–,–,–,–
"COc1ccc2cc3[n+](cc2c1OC)CCc1cc2c(cc1-3)OCO2 [Berberine, berberine chloride]",–,–,–,–,-- (inhibition not observed),< 20,< 20,< 1 µM and 0.73 µM,< 20,–
"CN1CCc2cc3c(cc2C1O)OCO3 (stereo not drawn) [Hydrastinine, hydrastinine chloride monohydrate]",–,–,–,–,-- (inhibition not observed),< 20,< 20,–,< 20,82
